Laboratory results taken from patent publication EP0837870B1, “SYNTHETIC MODIFICATION TO SPINOSYN COMPOUNDS” (Dow AgroSciences LLC, priority 1995, dated 1997).
Where a name gives a salt, the structure may show the parent alone.

What was measured:
Assay type in all cases: in vivo
[1] = test system: beet armyworm (Spodoptera exiqua); experiment: Activity against beet armyworm (BAW), sprayed diet cups with eggs
Experimental: (§1) In conducting evaluations of insecticidal activity, each test compound was formulated as a 400 ppm solution, and this solution was then diluted with water to give lesser concentrations. The 400 ppm solution was prepared by combining 19.2 mL of .05% solution of Tween 20 (polyoxyethylene (20) sorbitan monolaurate) in water with a solution of 8 mg of the compound in .8 mL of acetone/EtOH (9/1).
Activity against beet armyworm (Spodoptera exiqua) was evaluated as follows. The test is run using concentrations of 400 ppm and 50 ppm. A general purpose lepidoptera artificial diet was diluted to half strength with a 5% non nutritive agar. 8 mL of this diet material was dispensed into one ounce diet cups. One hour prior to treatment, 35 to 40 eggs were dispensed onto the diet surface. The cups were then sprayed with formulated material through a flat-fan nozzle. Treated cups were air dried prior to sealing with plastic caps. The cups were held for 6 days at room temperature. Activity was then rated based on the total number of live and dead larvae, and on the size of live larvae.

[2] = test system: tobacco budworm (Heliothis virescens); experiment: Activity against tobacco budworm (TBW), sprayed diet cups with eggs; settings: for mortality at 400 µg/mL: Heliothis virescens, 144 h
Experimental: as §1
Activity against tobacco budworm (Heliothis virescens) was evaluated as follows. A general purpose lepidoptera artificial diet was diluted to half strength with a 5% non nutritive agar. 8 mL of this diet material was dispensed into each one ounce diet cup. One hour prior to treatment 18 to 20 eggs were dispensed onto the diet surface. The cups were then sprayed with formulated material through a flat-fan nozzle. […] Treated cups were air dried prior to sealing with plastic caps. The cups were held for 6 days at room temperature. Activity was then rated based on the total number of live and dead larvae, and on the size of live larvae.

[3] = test system: Stomoxys calcitrans (stable fly); experiment: Adult stable fly test, serum-saturated dental wick; settings: readings at 24 and 48 hours, which one is reported is not stated; for Percentage of ASF killed at 10 ppm: 10 ppm in bovine serum; for Percentage of ASF killed at 100 ppm: 100 ppm in bovine serum
Experimental: (§2) The compound to be evaluated was dissolved in 1 part acetone/1 part ethanol to provide a stock solution of the compound at a concentration of 5,000 ppm; this solution was shaken for 15 minutes on a sonicator. Portions of the stock solution were placed in 15 ml test tubes, and portions of bovine serum were added to provide the desired dilution of the test compound. A dental wick was placed in each test tube and the serum allowed to saturate the wick.
For the adult stable fly test, the saturated wick was placed on a filter paper in a petri dish, and approximately 10 chilled live, hungry stable flies were placed on the center of the dish bottom. The dish was covered and allowed to incubate at 27°C and 60% relative humidity for 48 hours. Mortality readings were made at each of 24 and 48 hours, and adjusted for any mortality in the vehicle control to determine percent efficacy against adult stable fly.

[4] = test system: Phormia regina (blow fly); experiment: Blow fly larvae test, serum-saturated dental wick; settings: 24 and 48 hours, which one is reported is not stated; for Percentage of LBF killed at 10 ppm: 10 ppm in bovine serum; for Percentage of LBF killed at 100 ppm: 100 ppm in bovine serum
Experimental: as §2
For the blow fly test, approximately 20 blow fly larvae were placed onto the top center of the saturated dental wick, and the test tube was plugged with cotton and incubated at 27°C and 70% humidity for 24 and 48 hours. Larval mortality counts were then made, and adjusted for any mortality in the vehicle control, to determine percent efficacy against blow fly.

[5] = test system: two spotted spider mite (Tetranychus urticae); experiment: Activity against two spotted spider mite (TSSM), sprayed infested squash plants; settings: RATE 400 (ppm), three days after treatment; for mortality at 400 µg/mL: Tetranychus urticae, 72 h; for % MORTALITY: 4320 min
Experimental: as §1
Activity against cotton aphid (Aphis gossypii) and two spotted spider mite (Tetranychus urticae) was evaluated as follows. Golden crookneck squash plants were grown to the expanded cotyledon stage (about 6 to 8 days). The plants were infested with cotton aphids and two spotted spider mites 16 to 24 hours before application of the test material by transfer of infested foliage cut from a stock colony. Immediately prior to spray application of the test material the transfer foliage is removed from the squash plants. The test is run using concentrations of 400 ppm and 50 ppm. The plants are sprayed with test solution using an atomizing sprayer at 17 psi. Both surfaces of the leaves are covered until runoff, and then allowed to dry. Activity of each compound was determined three days after treatment. Activity was rated as a percent based on the mites/aphids present in plants sprayed with solvent alone.

[6] = test system: peanut root knot nematode (Meloidogyne arenaria); experiment: Activity against peanut root knot nematode, sprayed sand with cucumber seeds; settings: NEMA, RATE 400 (ppm), 10 to 12 days
Experimental: as §1
Activity against peanut root knot nematode (Meloidogyne arenaria) was evaluated as follows. Five untreated cucumber seeds are placed into the bottom of a clear one ounce cup, 20 g of clean white sand is added, and the cups were sprayed while rotating on a pedestal allowing 1.0 mL of a 400 ppm solution to be deposited on the sand. To each cup was dispensed 2.5 to 3.0 mL of deionized water containing 300 to 500 nematodes. The cups were held for 10 to 12 days in an environmental growth chamber at a temperature of 76 to 85°F and ambient humidity of 50 to 60%. After 10 to 12 days the cups were evaluated by inverting the cup and observing nematode mortality and feeding damage to the cucumber plants.

[7] = RATE 64 (unit not given), 8640 min

5,6-Dihydro Spinosyn A 17-Psa [Example F20]
% MORTALITY ([1]; RATE 400 (ppm), 6 days): 100%

CC[C@H]1CCC[C@H](O[C@H]2CC[C@H](N(C)C)[C@@H](C)O2)[C@@H](C)C(=O)[C@H]2C[C@@H]3[C@@H](CC[C@@H]4C[C@@H](O[C@@H]5O[C@@H](C)[C@H](OC)[C@@H](OC)[C@H]5OC)C[C@H]43)[C@@H]2CC(=O)O1 [Example D1, (14S)-5,6,13,14-Tetrahydro Spinosyn A]
% MORTALITY ([2]; RATE 80 (unit not given), 8640 min): 90% | Percentage of ASF killed at 10 ppm [3]: 100% | Percentage of LBF killed at 10 ppm [4]: <50%

CC[C@H]1CCC[C@H](O)[C@@H](C)C(=O)C2=C[C@H]3[C@@H]4C[C@H](O[C@@H]5O[C@@H](C)[C@H](OC)[C@@H](OC)[C@H]5OC)C[C@H]4[C@@H](Br)[C@H](OCCO)[C@H]3[C@@H]2CC(=O)O1 [Example E1, (5R,6R)-5-(2-Hydroxyethoxy)-6-bromo Spinosyn A 17-Psa]
mortality at 400 µg/mL ([2]; RATE 400 (ppm), 6 days): 100% | mortality at 400 µg/mL [5]: 60% | Percentage of LBF killed at 10 ppm [4]: <50%

CCC1CCCC(O)C(C)C(=O)C2=CC3C4CC(OC5OC(C)C(OC)C(OC)C5OC)CC4C4OC4C3C2CC(=O)O1 [Example E3, (5S,6R)-5,6-Epoxy Spinosyn A 17-Psa]
% MORTALITY [6]: 100%

CCC1CCCC(OC2CCC(N(C)C)C(C)O2)C(C)C(=O)C2=CC3C4CC(OC5OC(C)C(OC)C(OC)C5OC)CC4[C@@H](Br)[C@H](OCCO)C3C2CC(=O)O1 (stereo partly drawn) [Example F1, (5R,6R)-5-(2-Hydroxyethoxy)-6-bromo Spinosyn A]
% MORTALITY ([2]; RATE 400 (ppm), 6 days): 100% | Percentage of ASF killed at 10 ppm [3]: 60% | Percentage of LBF killed at 10 ppm [4]: 90%

CC[C@H]1CCC[C@H](O[C@H]2CC[C@H](N(C)C)[C@@H](C)O2)[C@@H](C)C(=O)C2=C[C@H]3[C@@H]4C[C@H](O[C@@H]5O[C@@H](C)[C@H](OC)[C@@H](OC)[C@H]5OC)C[C@H]4[C@@H](O)[C@@H](O)[C@H]3[C@@H]2CC(=O)O1 [Example F2, (5S,6R)-5,6-Dihydroxy-5,6-dihydro Spinosyn A]
mortality at 400 µg/mL ([2]; RATE 400 (ppm), 6 days): 100% | Percentage of ASF killed at 10 ppm [3]: <50% | Percentage of LBF killed at 10 ppm [4]: <50%

CC[C@H]1CCC[C@H](O[C@H]2CC[C@H](N(C)C)[C@@H](C)O2)[C@@H](C)C(=O)C2=C[C@H]3[C@@H]4C[C@H](O[C@@H]5O[C@@H](C)[C@H](OC)[C@@H](OC)[C@H]5OC)C[C@H]4[C@H]4OC(=O)O[C@H]4[C@H]3[C@@H]2CC(=O)O1 [Example F3, (5S,6R)-Spinosyn A carbonate]
% MORTALITY [2, 7]: 24% | Percentage of ASF killed at 10 ppm [3]: <50% | Percentage of LBF killed at 10 ppm [4]: <50%

CC[C@H]1CCC[C@H](O[C@H]2CC[C@H](N(C)C)[C@@H](C)O2)[C@@H](C)C(=O)C2=C[C@H]3[C@@H]4C[C@H](O[C@@H]5O[C@@H](C)[C@H](OC)[C@@H](OC)[C@H]5OC)C[C@H]4[C@H](Br)[C@@H](OC(C)=O)[C@H]3[C@@H]2CC(=O)O1 [Example F4a, (5S,6S)-5-Acetoxy-6-bromo Spinosyn A]
mortality at 400 µg/mL ([2]; RATE 400 (ppm), 6 days): 100% | Percentage of ASF killed at 10 ppm [3]: 90% | Percentage of LBF killed at 10 ppm [4]: <50%

CC[C@H]1CCC[C@H](O[C@H]2CC[C@H](N(C)C)[C@@H](C)O2)[C@@H](C)C(=O)C2=C[C@H]3[C@@H]4C[C@H](O[C@@H]5O[C@@H](C)[C@H](OC)[C@@H](OC)[C@H]5OC)C[C@H]4[C@@H](Br)[C@H](OC(C)=O)[C@H]3[C@@H]2CC(=O)O1 [Example F4b, (5R,6R)-5-Acetoxy-6-bromo-5,6-dihydro Spinosyn A]
mortality at 400 µg/mL ([2]; RATE 400 (ppm), 6 days): 100% | Percentage of ASF killed at 10 ppm [3]: 60% | Percentage of LBF killed at 10 ppm [4]: < 50%

CC[C@H]1CCC[C@H](O[C@H]2CC[C@H](N(C)C)[C@@H](C)O2)[C@@H](C)C(=O)C2=C[C@H]3[C@@H]4C[C@H](O[C@@H]5O[C@@H](C)[C@H](OC)[C@@H](OC)[C@H]5OC)C[C@H]4CC[C@H]3[C@@H]2CC(=O)O1 [Example F6, 5,6-Dihydro Spinosyn A]
% MORTALITY [2, 7]: 100% | mortality at 400 µg/mL [5]: 100% | Percentage of ASF killed at 10 ppm [3]: 100% | Percentage of LBF killed at 100 ppm [4]: 100%

CCC1CCCC(OC2CCC(N(C)C)C(C)O2)C(C)C(=O)C2=CC3C4CC(OC5OC(C)C(OC)C(OC)C5OC)CC4[C@H]4O[C@H]4C3C2CC(=O)O1 (stereo partly drawn) [Example F7a, (5S,6R)-5,6-Epoxy Spinosyn A]
% MORTALITY ([2]; RATE 400 (ppm), 6 days): 100% | % MORTALITY [5]: 90% | Percentage of ASF killed at 10 ppm [3]: 100% | Percentage of LBF killed at 10 ppm [4]: 90%

CCC1CCCC(OC2CCC(N(C)C)C(C)O2)C(C)C(=O)C2=CC3C4CC(OC5OC(C)C(OC)C(OC)C5OC)CC4[C@@H]4O[C@@H]4C3C2CC(=O)O1 (stereo partly drawn) [Example F7b, (5R,6S)-Epoxy Spinosyn A]
% MORTALITY ([2]; RATE 400 (ppm), 6 days): 100% | Percentage of ASF killed at 10 ppm [3]: 100% | Percentage of LBF killed at 10 ppm [4]: 100%

CCC1CCCC(OC2CCC(N(C)C)C(C)O2)C(C)C(=O)C2=CC3C4CC(OC5OC(C)C(OC)C(OC)C5OC)CC4[C@]4(C)O[C@@H]4C3C2CC(=O)O1 (stereo partly drawn) [Example F8b, (5R,6S)-Epoxy Spinosyn D]
% MORTALITY ([2]; RATE 400 (ppm), 6 days): 100% | % MORTALITY [5]: 90% | Percentage of ASF killed at 10 ppm [3]: 100% | Percentage of LBF killed at 100 ppm [4]: 100%

CC[C@H]1CCC[C@H](O[C@H]2CC[C@H](N(C)C)[C@@H](C)O2)[C@@H](C)C(=O)C2=C[C@H]3[C@@H]4C[C@H](O[C@@H]5O[C@@H](C)[C@H](OC)[C@@H](OC)[C@H]5OC)C[C@H]4CC[C@H]3[C@@H]2CC(=O)O1 [Example F23, 5,6-Dihydro Spinosyn A Hemiglutarate salt]
% MORTALITY ([2]; RATE 400 (ppm), 6 days): 100% | % MORTALITY [5]: 100% | Percentage of ASF killed at 100 ppm [3]: 100%

CC[C@H]1CCC[C@H](O[C@H]2CC[C@H](NC)[C@@H](C)O2)[C@@H](C)C(=O)C2=C[C@H]3[C@@H]4C[C@H](O[C@@H]5O[C@@H](C)[C@H](OC)[C@@H](OC)[C@H]5OC)C[C@H]4CC[C@H]3[C@@H]2CC(=O)O1 [Example F24, 5,6-Dihydro Spinosyn B]
% MORTALITY ([2]; RATE 400 (ppm), 6 days): 100% | % MORTALITY [5]: 100% | Percentage of ASF killed at 100 ppm [3]: 100%

(5R,6R)-5,6-dibromo-4''-keto Spinosyn A [Example F11a]
% MORTALITY ([1]; RATE 56 (unit not given)): 80%
